Data: publication PMC4672112, “Purification, Characterization of L-Methioninase from Candida tropicalis, and Its Application as an Anticancer” (Biotechnology Research International, 2015)

System: T1, L-methioninase
T1 construct: native, intracellular, purified from C. tropicalis cells (heat treatment, DEAE-cellulose, Sephadex); 46 kDa by SDS-PAGE; PLP enzyme
Test: DTNB methanethiol assay, […] nm; Lineweaver-Burk plot
Assay type: biochemical, Candida tropicalis
Settings: optimum assay conditions (pH 6.5, 45 C, 10 min), PLP; substrate range printed as 1 to 40 uM, which conflicts with the unit of Km; read-out: apparent Km

Work on CSCC[C@H](N)C(=O)O [L-methionine] yielded a Km of 500 µM.
